From ChEMBL document CHEMBL1201862, “PubChem BioAssay data set” (2004)
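Protocol summary: plate cells (96-well), add compound at 5 concentrations, incubate 48 h, interpolate endpoints linearly. GI50 marks 50% less growth.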 The source made the active and inactive calls. Rule as the data show it: active = GI50 up to about 1.1 µM and inactive = higher.

How the values were obtained:
Assay in all cases: NCI-60 cell line screen, 48 h
786-0 = tested on: 786-0
A498 = tested on: A498
A549 = tested on: A549
ACHN = tested on: ACHN
BT-549 = tested on: BT-549
CAKI-1 = tested on: CAKI-1
CCRF-CEM = tested on: CCRF-CEM
COLO 205 = tested on: COLO 205
DU-145 = tested on: DU-145
EKVX = tested on: EKVX
HCC 2998 = tested on: HCC 2998
HCT-116 = tested on: HCT-116
HCT-15 = tested on: HCT-15
HL-60 = tested on: HL-60
HOP-62 = tested on: HOP-62
HOP-92 = tested on: HOP-92
HT-29 = tested on: HT-29
Hs-578T = tested on: Hs-578T
IGROV-1 = tested on: IGROV-1
K562 = tested on: K562
KM12 = tested on: KM12
LOX IMVI = tested on: LOX IMVI
M14 = tested on: M14
MCF7 = tested on: MCF7
MDA-MB-231 = tested on: MDA-MB-231
MDA-MB-435 = tested on: MDA-MB-435
MDA-N = tested on: MDA-N
MOLT-4 = tested on: MOLT-4
Malme-3M = tested on: Malme-3M
NCI-H226 = tested on: NCI-H226
NCI-H23 = tested on: NCI-H23
NCI-H460 = tested on: NCI-H460
NCI-H522 = tested on: NCI-H522
NCI/ADR-RES = tested on: NCI/ADR-RES
OVCAR-3 = tested on: OVCAR-3
OVCAR-4 = tested on: OVCAR-4
OVCAR-5 = tested on: OVCAR-5
OVCAR-8 = tested on: OVCAR-8
PC-3 = tested on: PC-3
RPMI-8226 = tested on: RPMI-8226
RXF 393 = tested on: RXF 393
SF-268 = tested on: SF-268
SF-295 = tested on: SF-295
SF-539 = tested on: SF-539
SK-MEL-28 = tested on: SK-MEL-28
SK-MEL-2 = tested on: SK-MEL-2
SK-OV-3 = tested on: SK-OV-3
SN12C = tested on: SN12C
SNB-19 = tested on: SNB-19
SNB-75 = tested on: SNB-75
SW-620 = tested on: SW-620
T47D = tested on: T47D
TK-10 = tested on: TK-10
U-251 = tested on: U-251
UACC-257 = tested on: UACC-257
UACC-62 = tested on: UACC-62
SK-MEL-5 = tested on: SK-MEL-5
UO-31 = tested on: UO-31

SMILES: CC1=NC(=N)N=C(C)C1/N=N/c1ccc2[nH]c(C)nc2c1 (centres undefined)
- GI50 (786-0): > 100 µM (inactive)
- GI50 (A498): > 100 µM (inactive)
- GI50 (A549): > 100 µM (inactive)
- GI50 (ACHN): > 100 µM (inactive)
- GI50 (BT-549): > 100 µM (inactive)
- GI50 (CAKI-1): > 100 µM (inactive)
- GI50 (CCRF-CEM): > 100 µM (inactive)
- GI50 (COLO 205): > 100 µM (inactive)
- GI50 (DU-145): > 100 µM (inactive)
- GI50 (EKVX): > 100 µM (inactive)
- GI50 (HCC 2998): > 100 µM (inactive)
- GI50 (HCT-116): > 100 µM (inactive)
- GI50 (HCT-15): > 100 µM
- GI50 (HL-60): > 100 µM (inactive)
- GI50 (HOP-62): > 100 µM (inactive)
- GI50 (HOP-92): > 100 µM (inactive)
- GI50 (HT-29): > 100 µM (inactive)
- GI50 (Hs-578T): > 100 µM (inactive)
- GI50 (IGROV-1): > 100 µM (inactive)
- GI50 (K562): > 100 µM (inactive)
- GI50 (KM12): > 100 µM (inactive)
- GI50 (LOX IMVI): > 100 µM (inactive)
- GI50 (M14): > 100 µM (inactive)
- GI50 (MCF7): > 100 µM (inactive)
- GI50 (MDA-MB-231): > 100 µM (inactive)
- GI50 (MDA-MB-435): > 100 µM (inactive)
- GI50 (MDA-N): > 100 µM (inactive)
- GI50 (MOLT-4): > 100 µM (inactive)
- GI50 (Malme-3M): > 100 µM (inactive)
- GI50 (NCI-H226): > 100 µM (inactive)
- GI50 (NCI-H23): > 100 µM (inactive)
- GI50 (NCI-H460): > 100 µM (inactive)
- GI50 (NCI-H522): > 100 µM (inactive)
- GI50 (NCI/ADR-RES): > 100 µM (inactive)
- GI50 (OVCAR-3): > 100 µM (inactive)
- GI50 (OVCAR-4): > 100 µM (inactive)
- GI50 (OVCAR-5): > 100 µM (inactive)
- GI50 (OVCAR-8): > 100 µM (inactive)
- GI50 (PC-3): > 100 µM (inactive)
- GI50 (RPMI-8226): > 100 µM (inactive)
- GI50 (RXF 393): > 100 µM (inactive)
- GI50 (SF-268): > 100 µM (inactive)
- GI50 (SF-295): > 100 µM (inactive)
- GI50 (SF-539): > 100 µM (inactive)
- GI50 (SK-MEL-28): > 100 µM (inactive)
- GI50 (SK-MEL-2): > 100 µM (inactive)
- GI50 (SK-OV-3): > 100 µM (inactive)
- GI50 (SN12C): > 100 µM (inactive)
- GI50 (SNB-19): > 100 µM (inactive)
- GI50 (SNB-75): > 100 µM (inactive)
- GI50 (SW-620): > 100 µM (inactive)
- GI50 (T47D): > 100 µM (inactive)
- GI50 (TK-10): > 100 µM (inactive)
- GI50 (U-251): > 100 µM (inactive)
- GI50 (UACC-257): > 100 µM (inactive)
- GI50 (UACC-62): > 100 µM (inactive)

SMILES: [N-]=[N+]=NC(c1ccccc1)(c1ccccc1)c1ccccc1
- GI50 (786-0): 17.1 µM (inactive)
- GI50 (A498): 17.3 µM (inactive)
- GI50 (A549): 17 µM (inactive)
- GI50 (ACHN): 15.7 µM (inactive)
- GI50 (BT-549): 19.7 µM (inactive)
- GI50 (CAKI-1): 17.4 µM (inactive)
- GI50 (CCRF-CEM): 19.1 µM (inactive)
- GI50 (COLO 205): 14.6 µM (inactive)
- GI50 (DU-145): 17.3 µM (inactive)
- GI50 (EKVX): 14.2 µM (inactive)
- GI50 (HCC 2998): 15.8 µM (inactive)
- GI50 (HCT-116): 16 µM (inactive)
- GI50 (HCT-15): 18.1 µM
- GI50 (HL-60): 17.2 µM (inactive)
- GI50 (HOP-62): 19.5 µM (inactive)
- GI50 (HOP-92): 17.1 µM (inactive)
- GI50 (HT-29): 16 µM (inactive)
- GI50 (Hs-578T): 22.8 µM (inactive)
- GI50 (IGROV-1): 25 µM (inactive)
- GI50 (K562): 14.8 µM (inactive)
- GI50 (KM12): 18.2 µM (inactive)
- GI50 (LOX IMVI): 19.1 µM (inactive)
- GI50 (M14): 18.4 µM (inactive)
- GI50 (MCF7): 17.5 µM (inactive)
- GI50 (MDA-MB-231): 16.5 µM (inactive)
- GI50 (MDA-MB-435): 19.1 µM (inactive)
- GI50 (MDA-N): 16.4 µM (inactive)
- GI50 (MOLT-4): 16.1 µM (inactive)
- GI50 (Malme-3M): 14.6 µM (inactive)
- GI50 (NCI-H226): 17.3 µM (inactive)
- GI50 (NCI-H23): 16.5 µM (inactive)
- GI50 (NCI-H460): 16.6 µM (inactive)
- GI50 (NCI-H522): 16.5 µM (inactive)
- GI50 (NCI/ADR-RES): 16.7 µM (inactive)
- GI50 (OVCAR-3): 20.4 µM (inactive)
- GI50 (OVCAR-4): 20.3 µM (inactive)
- GI50 (OVCAR-5): 16 µM (inactive)
- GI50 (OVCAR-8): 17.3 µM (inactive)
- GI50 (PC-3): 15.2 µM (inactive)
- GI50 (RPMI-8226): 19.3 µM (inactive)
- GI50 (RXF 393): 15.7 µM (inactive)
- GI50 (SF-268): 18.5 µM (inactive)
- GI50 (SF-295): 12.1 µM (inactive)
- GI50 (SF-539): 16.9 µM (inactive)
- GI50 (SK-MEL-28): 18.4 µM (inactive)
- GI50 (SK-MEL-2): 15.5 µM (inactive)
- GI50 (SK-MEL-5): 13.8 µM (inactive)
- GI50 (SK-OV-3): 29.4 µM (inactive)
- GI50 (SN12C): 16.7 µM (inactive)
- GI50 (SNB-19): 18.4 µM (inactive)
- GI50 (SNB-75): 16.9 µM (inactive)
- GI50 (SW-620): 17.7 µM (inactive)
- GI50 (T47D): 16 µM (inactive)
- GI50 (TK-10): 17.5 µM (inactive)
- GI50 (U-251): 15.8 µM (inactive)
- GI50 (UACC-257): 16 µM (inactive)
- GI50 (UACC-62): 15.4 µM (inactive)
- GI50 (UO-31): 16 µM (inactive)
